The text below walks through data of ChEMBL document CHEMBL1142884, “Inhibition of horseradish peroxidase catalytic activity by new 3-phenylcoumarin derivatives: synthesis and structure-activity relationships” (Bioorg Med Chem, 2007).

Test [1] in a line: Inhibition of horseradish peroxidase catalytic activity by luminol-enhanced chemiluminescence assay. Set-up: species or system Armoracia rusticana.
The nature of test [2]: DPPH radical scavenging activity. It is filed as functional. (DPPH is a stable violet radical that fades when it is reduced.)

As usually defined, the IC50 is the point on the concentration scale where inhibition reaches its midpoint. With `CC(=O)Oc1ccc(-c2cc3cc(OC(C)=O)c(OC(C)=O)cc3oc2=O)cc1OC(C)=O`, the IC50 in test [1] is 28.2 µM.
As to `O=c1oc2ccc(O)cc2cc1-c1ccc(O)c(O)c1`, the concentration for half-maximal inhibition (IC50) in test [1] was found to be 2.8 µM; in test [2], 26.8 µM.
`O=c1oc2cc(O)c(O)cc2cc1-c1ccc2c(c1)OCO2`: the half-maximal inhibitory concentration (IC50) was determined as 3.4 µM in test [1] and 13.2 µM in test [2].
Regarding `O=c1oc2ccc(O)cc2cc1-c1ccccc1O`, the figures for the IC50 in test [1] and in test [2] were 24.6 µM and 24.9 µM, respectively.
The corresponding values for `O=c1oc2cc(O)c(O)cc2cc1-c1ccc(O)c(O)c1` are 1.2 µM and 9.8 µM.
